What was measured:
[1] = biological target: T1, wild type LRRK2 overexpressed in recombinant HEK-293T cells (Homo sapiens, UniProt Q5S007); assay: pS935 LRRK2 Cell Assay (HTRF, phospho-LRRK2 Ser935); format: cell-based; details: LRRK2 Inhibition, Table 8, 2 hours compound incubation
T1 construct: host or cells: HEK293T (transient transfection with pCMV-LRRK2 WT plasmid)
Procedure, shortened: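 Phospho-Ser935 LRRK2 measured by two-antibody HTRF (Eu-cryptate donor, d2 acceptor; 665/615 nm ratio) after overnight detection at 23° C. Before lysis, transiently LRRK2-transfected HEK-293T cells were exposed 2 h at 37° C to a 9-point, 3-fold series from 10 μM, with DMSO at 0.2%.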

LRRK2 wild type enzyme = LRRK2 wild type enzyme (Homo sapiens, UniProt Q5S007); assay: Biochemical Assay: LRRK2 TR-FRET (LanthaScreen) kinase assay with LRRKtide substrate; details: LRRK2 Inhibition, Table 8
Procedure, shortened: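 TR-FRET detection (Tb-labelled phospho-LRRKtide antibody, EDTA stop, 30 min) followed a 120 min, 23 °C reaction of 3 nM wild-type human LRRK2 with LRRKtide (400 nM) and ATP (25 μM) in Tris pH 8.0. Compounds: 11-point 3-fold series from 10 μM, 15 min enzyme preincubation.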

T1 sequence (Q5S007 whole entry): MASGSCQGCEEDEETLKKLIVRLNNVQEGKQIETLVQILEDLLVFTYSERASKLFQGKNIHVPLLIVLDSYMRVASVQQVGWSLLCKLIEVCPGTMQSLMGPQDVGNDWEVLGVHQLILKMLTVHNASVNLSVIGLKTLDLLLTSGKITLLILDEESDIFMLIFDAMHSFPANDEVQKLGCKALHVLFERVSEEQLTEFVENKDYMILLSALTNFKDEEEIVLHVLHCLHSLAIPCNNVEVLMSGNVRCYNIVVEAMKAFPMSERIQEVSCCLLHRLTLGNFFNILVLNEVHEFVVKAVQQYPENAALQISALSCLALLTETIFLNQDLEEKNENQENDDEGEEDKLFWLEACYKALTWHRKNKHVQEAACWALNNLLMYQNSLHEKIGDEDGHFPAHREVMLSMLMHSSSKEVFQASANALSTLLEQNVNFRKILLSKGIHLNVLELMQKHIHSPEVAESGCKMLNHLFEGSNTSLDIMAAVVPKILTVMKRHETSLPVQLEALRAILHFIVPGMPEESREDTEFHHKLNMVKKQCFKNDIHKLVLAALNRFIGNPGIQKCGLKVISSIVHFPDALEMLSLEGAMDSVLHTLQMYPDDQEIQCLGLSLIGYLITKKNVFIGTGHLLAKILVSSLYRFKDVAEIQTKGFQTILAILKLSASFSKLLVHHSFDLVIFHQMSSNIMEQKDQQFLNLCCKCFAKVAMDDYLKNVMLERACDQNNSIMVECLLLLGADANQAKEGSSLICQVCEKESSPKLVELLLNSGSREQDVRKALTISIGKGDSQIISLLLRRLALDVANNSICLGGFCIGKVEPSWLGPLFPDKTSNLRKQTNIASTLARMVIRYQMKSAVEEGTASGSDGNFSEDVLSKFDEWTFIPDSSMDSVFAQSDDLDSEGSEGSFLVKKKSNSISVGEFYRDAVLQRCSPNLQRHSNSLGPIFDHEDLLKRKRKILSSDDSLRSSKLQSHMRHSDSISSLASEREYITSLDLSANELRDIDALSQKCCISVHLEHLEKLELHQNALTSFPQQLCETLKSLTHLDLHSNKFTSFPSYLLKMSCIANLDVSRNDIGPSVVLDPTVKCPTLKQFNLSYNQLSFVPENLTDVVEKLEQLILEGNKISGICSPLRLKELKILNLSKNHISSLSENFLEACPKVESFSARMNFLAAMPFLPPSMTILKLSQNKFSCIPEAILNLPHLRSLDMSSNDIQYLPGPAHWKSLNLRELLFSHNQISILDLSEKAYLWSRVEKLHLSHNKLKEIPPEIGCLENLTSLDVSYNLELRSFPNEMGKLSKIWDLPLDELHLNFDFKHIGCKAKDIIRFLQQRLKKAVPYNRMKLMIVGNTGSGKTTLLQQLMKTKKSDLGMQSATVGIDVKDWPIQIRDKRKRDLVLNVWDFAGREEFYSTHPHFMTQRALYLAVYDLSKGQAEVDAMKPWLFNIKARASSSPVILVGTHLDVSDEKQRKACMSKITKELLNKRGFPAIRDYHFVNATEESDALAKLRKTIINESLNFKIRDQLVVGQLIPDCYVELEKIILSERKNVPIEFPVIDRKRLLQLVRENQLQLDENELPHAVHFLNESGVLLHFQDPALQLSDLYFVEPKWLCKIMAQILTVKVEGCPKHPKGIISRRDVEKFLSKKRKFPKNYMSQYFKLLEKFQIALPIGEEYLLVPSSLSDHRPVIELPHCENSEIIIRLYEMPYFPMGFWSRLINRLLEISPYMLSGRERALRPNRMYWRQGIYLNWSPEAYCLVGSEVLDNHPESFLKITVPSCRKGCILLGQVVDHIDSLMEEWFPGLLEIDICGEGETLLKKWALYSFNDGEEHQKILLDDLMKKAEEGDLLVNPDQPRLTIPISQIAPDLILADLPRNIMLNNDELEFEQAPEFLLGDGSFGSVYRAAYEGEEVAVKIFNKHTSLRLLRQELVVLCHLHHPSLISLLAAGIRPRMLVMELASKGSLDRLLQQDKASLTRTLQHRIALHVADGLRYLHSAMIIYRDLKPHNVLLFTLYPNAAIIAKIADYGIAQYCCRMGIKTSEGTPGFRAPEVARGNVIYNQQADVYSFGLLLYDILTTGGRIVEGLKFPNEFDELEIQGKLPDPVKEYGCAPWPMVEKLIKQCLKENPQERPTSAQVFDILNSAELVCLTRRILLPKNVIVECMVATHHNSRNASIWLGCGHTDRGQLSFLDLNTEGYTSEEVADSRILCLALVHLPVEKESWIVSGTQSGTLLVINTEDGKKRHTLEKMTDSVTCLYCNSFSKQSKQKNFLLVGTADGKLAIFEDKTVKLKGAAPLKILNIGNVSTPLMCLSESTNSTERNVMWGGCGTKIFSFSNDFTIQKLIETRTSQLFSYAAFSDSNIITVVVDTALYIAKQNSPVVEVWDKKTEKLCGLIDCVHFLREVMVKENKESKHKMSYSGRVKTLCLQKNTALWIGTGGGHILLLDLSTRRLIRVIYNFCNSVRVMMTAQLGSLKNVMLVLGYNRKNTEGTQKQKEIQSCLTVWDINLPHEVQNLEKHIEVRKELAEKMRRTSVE
Chain of LRRK2 wild type enzyme (Q5S007 whole entry): as above

SMILES: CC1CC(n2c(CC3CNC3)nc3cnc4ccc(C#N)cc4c32)CCO1 (stereo not shown) [Compound 70, 2-[(azetidin-3-yl)methyl]-1-(2-methyloxan-4-yl)-1H-imidazo[4,5-c]quinoline-8-carbonitrile]
- IC50 [1]: 3680 nM
- IC50 (LRRK2 wild type enzyme): 9.07 nM

SMILES: C[C@@H]1C[C@H](n2c([C@@H]3CN(CC4CC4)S(=O)(=O)C3)nc3cnc4ccc(C#N)cc4c32)CCO1 [Compound 1, 2-[(4S)-2-(cyclopropylmethyl)-1,1-dioxo-1X^6,2-thiazolidin-4-yl]-1-[(2R,4R)-2-methyloxan-4-yl]-1H-imidazo[4,5-c]quinoline-8-carbonitrile]
- IC50 [1]: 168 nM
- IC50 (LRRK2 wild type enzyme): 2.45 nM

SMILES: C[C@@H]1C[C@H](n2c(CC(=O)N(C)CC(F)(F)F)nc3cnc4ccc(C#N)cc4c32)CCO1 [Compound 81, 2-{8-cyano-1-[(2R,4R)-2-methyloxan-4-yl]-1H-imidazo[4,5-c]quinolin-2-yl}-N-methyl-N-(2,2,2-trifluoroethyl)acetamide]
- IC50 [1]: 728 nM
- IC50 (LRRK2 wild type enzyme): 10.5 nM

SMILES: C[C@@H]1C[C@H](n2c([C@@H]3CCN(C(=O)C4CC4)C3)nc3cnc4ccc(C#N)cc4c32)CCO1 [Compound 40, 2-[(3R)-1-cyclopropanecarbonylpyrrolidin-3-yl]-1-[(2R,4R)-2-methyloxan-4-yl]-1H-imidazo[4,5-c]quinoline-8-carbonitrile]
- IC50 [1]: 685 nM
- IC50 (LRRK2 wild type enzyme): 9.19 nM

SMILES: C[C@@H]1C[C@H](n2c(CNS(=O)(=O)C3CC3)nc3cnc4ccc(C#N)cc4c32)CCO1 [Compound 22, N-({8-cyano-1-[(2R,4R)-2-methyloxan-4-yl]-1H-imidazo[4,5-c]quinolin-2-yl}methyl)cyclopropanesulfonamide]
- IC50 [1]: 536 nM
- IC50 (LRRK2 wild type enzyme): 6.8 nM

SMILES: C[C@@H]1C[C@H](n2c([C@@H]3CCN(S(=O)(=O)C4CC4)C3)nc3cnc4ccc(C#N)cc4c32)CCO1 [Compound 24, 2-[(3R)-1-(cyclopropanesulfonyl)pyrrolidin-3-yl]-1-[(2R,4R)-2-methyloxan-4-yl]-1H-imidazo[4,5-c]quinoline-8-carbonitrile]
- IC50 [1]: 677 nM
- IC50 (LRRK2 wild type enzyme): 5.4 nM

SMILES: C[C@@H]1C[C@H](n2c(CNc3nccn3C)nc3cnc4ccc(C#N)cc4c32)CCO1 [Compound 12, 2-{[(1-methyl-1H-imidazol-2-yl)amino]methyl}-1-[(2R,4R)-2-methyloxan-4-yl]-1H-imidazo[4,5-c]quinoline-8-carbonitrile]
- IC50 [1]: > 10000 nM
- IC50 (LRRK2 wild type enzyme): 9.07 nM

SMILES: C[C@@H]1C[C@H](n2c(C3CC(=O)N(Cc4ccccn4)C3)nc3cnc4ccc(C#N)cc4c32)CCO1 (mixture of isomers) [Compound 61, 1-[(2R,4R)-2-methyloxan-4-yl]-2-{5-oxo-1-[(pyridin-2-yl)methyl]pyrrolidin-3-yl}-1H-imidazo[4,5-c]quinoline-8-carbonitrile]
- IC50 [1]: 89.2 nM
- IC50 (LRRK2 wild type enzyme): 1.09 nM

SMILES: C[C@@H]1C[C@H](n2c(CC(=O)NC3CCC3)nc3cnc4ccc(C#N)cc4c32)CCO1 [Compound 84, 2-{8-cyano-1-[(2R,4R)-2-methyloxan-4-yl]-1H-imidazo[4,5-c]quinolin-2-yl}-N-cyclobutylacetamide]
- IC50 [1]: 26.2 nM
- IC50 (LRRK2 wild type enzyme): 0.436 nM

SMILES: COc1cc(F)c(NC(=O)Cc2nc3cnc4ccc(C#N)cc4c3n2[C@@H]2CCO[C@H](C)C2)cn1 [Compound 235, N-(4-fluoro-6-methoxy-3-pyridyl){3-[(2R,4R)-2-methyltetrahydro-2H-pyran-4-yl]-12-cyano-3,5,8-triazatricyclo[7.4.0.0^2,6]trideca-1,4,6,8,10,12-hexaen-4-yl}acetamide]
- IC50 [1]: 9.9 nM
- IC50 (LRRK2 wild type enzyme): 0.458 nM

SMILES: C[C@@H]1C[C@H](n2c([C@@H]3CCCN(C(=O)C4CC4)C3)nc3cnc4ccc(C#N)cc4c32)CCO1 [Compound 28, 2-[(3R)-1-cyclopropanecarbonylpiperidin-3-yl]-1-[(2R,4R)-2-methyloxan-4-yl]-1H-imidazo[4,5-c]quinoline-8-carbonitrile]
- IC50 [1]: 773 nM
- IC50 (LRRK2 wild type enzyme): 12.3 nM

SMILES: C[C@@H]1C[C@H](n2c(CC(=O)N[C@H]3C[C@@H]3c3cccnc3)nc3cnc4ccc(C#N)cc4c32)CCO1 [Compound 347, N-[(1S,2R)-2-(3-pyridyl)cyclopropyl]{3-[(2R,4R)-2-methyltetrahydro-2H-pyran-4-yl]-12-cyano-3,5,8-triazatricyclo[7.4.0.0^2,6]trideca-1(9),2(6),4,7,10,12-hexaen-4-yl}acetamide]
- IC50 [1]: 144 nM
- IC50 (LRRK2 wild type enzyme): 1.28 nM

SMILES: COc1ccncc1NC(=O)Cc1nc2cnc3ccc(C#N)cc3c2n1[C@@H]1CCO[C@H](C)C1 [Compound 250, N-(4-methoxy-3-pyridyl){3-[(2R,4R)-2-methyltetrahydro-2H-pyran-4-yl]-12-cyano-3,5,8-triazatricyclo[7.4.0.0^2,6]trideca-1(9),2(6),4,7,10,12-hexaen-4-yl}acetamide]
- IC50 [1]: 6.01 nM
- IC50 (LRRK2 wild type enzyme): 0.664 nM

SMILES: C[C@@H]1C[C@H](n2c(CC(=O)Nc3ncccn3)nc3cnc4ccc(C#N)cc4c32)CCO1 [Compound 178, 2-{8-cyano-1-[(2R,4R)-2-methyloxan-4-yl]-1H-imidazo[4,5-c]quinolin-2-yl}-N-(pyrimidin-2-yl)acetamide]
- IC50 [1]: 3.92 nM
- IC50 (LRRK2 wild type enzyme): 0.34 nM

SMILES: COc1nccc(F)c1NC(=O)Cc1nc2cnc3ccc(C#N)cc3c2n1[C@@H]1CCO[C@H](C)C1 [Compound 202, N-(4-fluoro-2-methoxy-3-pyridyl){3-[(2R,4R)-2-methyltetrahydro-2H-pyran-4-yl]-12-cyano-3,5,8-triazatricyclo[7.4.0.0^2,6]trideca-1,4,6,8,10,12-hexaen-4-yl}acetamide]
- IC50 [1]: 8.58 nM
- IC50 (LRRK2 wild type enzyme): 0.364 nM

SMILES: C[C@@H]1C[C@H](n2c(C3CC(=O)N([C@H]4CCOC4)C3)nc3cnc4ccc(C#N)cc4c32)CCO1 (stereo partly drawn) [Compound 45, 1-[(2R,4R)-2-methyloxan-4-yl]-2-{5-oxo-1-[(3S)-oxolan-3-yl]pyrrolidin-3-yl}-1H-imidazo[4,5-c]quinoline-8-carbonitrile]
- IC50 [1]: 550 nM
- IC50 (LRRK2 wild type enzyme): 3.24 nM

SMILES: C[C@@H]1C[C@H](n2c(CC(=O)Nc3cn(C)ccc3=O)nc3cnc4ccc(C#N)cc4c32)CCO1 [Compound 234, N-(1-methyl-4-oxo-1,4-dihydro-3-pyridyl){3-[(2R,4R)-2-methyltetrahydro-2H-pyran-4-yl]-12-cyano-3,5,8-triazatricyclo[7.4.0.0^2,6]trideca-1,4,6,8,10,12-hexaen-4-yl}acetamide]
- IC50 [1]: 407 nM
- IC50 (LRRK2 wild type enzyme): 0.659 nM

SMILES: C[C@@H]1C[C@H](n2c(C3CC(=O)N(Cc4cccnc4)C3)nc3cnc4ccc(C#N)cc4c32)CCO1 (mixture of isomers) [Compound 57, 1-[(2R,4R)-2-methyloxan-4-yl]-2-[(3RS)-5-oxo-1-[(pyridin-3-yl)methyl]pyrrolidin-3-yl]-1H-imidazo[4,5-c]quinoline-8-carbonitrile]
- IC50 [1]: 216 nM
- IC50 (LRRK2 wild type enzyme): 0.958 nM

SMILES: C[C@@H]1C[C@H](n2c(CC(=O)Nc3ccnnc3)nc3cnc4ccc(C#N)cc4c32)CCO1 [Compound 268, N-4-pyridazinyl{3-[(2R,4R)-2-methyltetrahydro-2H-pyran-4-yl]-12-cyano-3,5,8-triazatricyclo[7.4.0.0^2,6]trideca-1,4,6,8,10,12-hexaen-4-yl}acetamide]
- IC50 [1]: 109 nM
- IC50 (LRRK2 wild type enzyme): 0.461 nM

SMILES: CC(=O)N1CC(c2nc3cnc4ccc(C#N)cc4c3n2[C@@H]2CCO[C@H](C)C2)C1 [Compound 63, 2-(1-acetylazetidin-3-yl)-1-[(2R,4R)-2-methyloxan-4-yl]-1H-imidazo[4,5-c]quinoline-8-carbonitrile]
- IC50 [1]: 1850 nM
- IC50 (LRRK2 wild type enzyme): 12.4 nM
